Structures can show the parent of a compound that is named as a salt. Where two headings read alike, the source gives them in different places.
Tests used:
[1] = system: normal human lung fibroblasts (NHLF); assay: Nuclear count in the HCA, standard assay; type: cell-based; details: read-out: Nuclear count IC50
Protocol: (§1) The plate was washed 3 times with starvation medium, e.g. fibroblast basal medium (FBM, Lonza) supplemented with 0.1% faf BSA, 100 units / ml of penicillin and 100 μg / ml of streptomycin and 250 ng / ml amphotericin B, and then starved for 24 h in 30 μl volume. NHLF were differentiated into myofibroblasts by incubation with 5 ng / ml TGF–β1 (from a stock of 20 μg / ml in 4 mM HCl, 1 mg / ml BSA) for 48 h. Compounds were prepared as 5x stocks in starvation medium and added to the starved cells to a final 1x concentration concomitant with TGF–β1 addition. The final DMSO concentration in the assay was 0.6% in all wells. 48 h after TGF–β1 addition, the medium was removed and the cells were fixed in methanol for 10 min at room temperature (RT). After fixation, cells were washed 3 times with 1 x PBS and either stored at 4°C for up to 3 days or further processed. […] Images were acquired on the Opera Phenix confocal high–content screening system (Perkin Elmer) using the 20–x water immersion lens.
(§2) DAPI stained nuclei were used to identify cells. α–SMA and FN regions were then identified and mapped to the corresponding nuclei for background correction, cell segmentation and cell feature computation to identify, classify and weigh over 400 features per cell. The computed features (S1 Table) comprise, but are not limited to, granularity, intensity, texture, area, shape and solidity of a cell in both α–SMA–and FN–expressing regions. The 0% compound effect (5 ng / ml TGF–β1) and the 100% compound effect (0 ng / ml TGF–β1) controls, were used to train and validate a support vector machine (SVM), a supervised learning model with associated learning algorithm that, once successfully validated, was applied to every cell in every well of the assayed microtiter plate. The SVM allowed autonomous weighting and classification of the characteristics and thus enabled the classifier to decide which characteristics were most relevant for the differentiation of the cell types. […] The classification of each cell was aggregated to a cell type ratio per well, represented as the computed percentage effect value per well indicative of the degree of myofibroblast differentiation. E.g. 100% equals complete myofibroblast differentiation, 0% indicates a pure fibroblast population without any signs of differentiation.

[2] = system: normal human lung fibroblasts (NHLF); assay: Phenotypic high-content assay (HCA) of TGF–β1–induced fibroblast–to–myofibroblast differentiation; type: cell-based; details: for IC50: read-out: HCA IC50; for inhibition at 10 µM: read-out: Effect HCA at 10 µM [% inhibition]
Protocol: as §1, §2

NHLF cells = assay: RealTime–Glo MT viability assay
Protocol: The effect of compounds on cell viability was assessed by quantifying the relative metabolic activity of cells using the non–lytic luminescence–based RealTime–Glo™ MT cell viability assay (Promega) according to the manufacturer’s instructions.

[3] = Homo sapiens, Fibroblast, 48 h, standard HCA, NHLF, 5 ng/ml TGF–β1, 48 h
[4] = Homo sapiens, Fibroblast, 48 h, NHLF, 5 ng/ml TGF–β1 for 48 h, compound added with TGF–β1, mean ± SD
[5] = Homo sapiens, Fibroblast, 10 µM compound, 5 ng/ml TGF–β1, 48 h
[6] = Homo sapiens, Fibroblast, NHLF, 5 ng/ml TGF–β1 for 48 h, compound added with TGF–β1, mean ± SD
[7] = standard HCA, NHLF, 5 ng/ml TGF–β1, 48 h
[8] = 10 µM compound, 5 ng/ml TGF–β1, 48 h
[9] = NHLF, 5 ng/ml TGF–β1 for 48 h, compound added with TGF–β1, mean ± SD

| Structure (SMILES) | IC50 [1, 3] | IC50 [2, 4] | inhibition at 10 µM [2, 5] | Effect on viability at 10 µM [% reduction] (NHLF cells; human, 10 µM) | Effect on viability at 10 µM [% reduction] (NHLF cells; 10 µM compound) | also measured |
| --- | --- | --- | --- | --- | --- | --- |
| Oc1c(Cl)cc(Cl)c2cccnc12 [Chloroxine] | > 25 µM | 5.9 µM | 80% | 14 % reduction |  |  |
| C[C@H]1O[C@@H](O[C@H]2[C@@H](O)C[C@H](O[C@H]3[C@@H](O)C[C@H](O[C@H]4CC[C@@]5(C)[C@H](CC[C@@H]6[C@@H]5C[C@@H](O)[C@]5(C)[C@@H](C7=CC(=O)OC7)CC[C@]65O)C4)O[C@@H]3C)O[C@@H]2C)C[C@H](O)[C@@H]1O [Digoxin] |  |  |  | 19 % reduction |  | IC50 ([1]; Homo sapiens, Fibroblast, 48 h): > 25 µM; inhibition at 10 µM ([2]; Homo sapiens, Fibroblast, 48 h): 87%; IC50 ([2]; Homo sapiens, Fibroblast, 48 h): 0.01 µM |
| COc1cccc2c1C(=O)c1c(O)c3c(c(O)c1C2=O)C[C@@](O)(C(C)=O)C[C@@H]3O[C@H]1C[C@H](N)[C@H](O)[C@H](C)O1 [Daunorubicin hydrochloride] |  |  |  | 14 % reduction |  | inhibition at 10 µM ([2]; Homo sapiens, Fibroblast, 48 h): 73%; IC50 ([2]; Homo sapiens, Fibroblast, 48 h): 0.27 µM |
| C[C@@H]1O[C@@H](O[C@@H]2C=C3CC[C@@H]4[C@H](CC[C@]5(C)[C@@H](c6ccc(=O)oc6)CC[C@]45O)[C@@]3(C)CC2)[C@H](O)[C@H](O)[C@H]1O [Proscillaridin A] |  |  | 101% |  | 12 % reduction | IC50 ([1]; Homo sapiens, Fibroblast, standard HCA, NHLF, 5 ng/ml TGF–β1, 48 h): > 25 µM; IC50 [2, 6]: 0.001 µM |
| C[C@@H]1O[C@@H](O[C@H]2C[C@@H](O)[C@]3(CO)[C@H]4[C@H](O)C[C@]5(C)[C@@H](C6=CC(=O)OC6)CC[C@]5(O)[C@@H]4CC[C@]3(O)C2)[C@H](O)[C@H](O)[C@H]1O [Ouabain] | > 25 µM | 0.012 µM | 100% |  | 15 % reduction |  |
| CC(C)(C)CC(C)(C)c1ccc(OCCOCC[N+](C)(C)Cc2ccccc2)cc1 [Benzethonium chloride] |  |  |  |  | 72 % reduction |  |
| CC[C@@]1(O)C(=O)OCc2c1cc1n(c2=O)Cc2cc3ccccc3nc2-1 [Camptothecine (S+)] |  |  |  |  | 5 % reduction | IC50 [1, 7]: > 25 µM; Effect HCA at 10 µM [% inhibition] [2, 8]: 105 % inhibition; IC50 [2, 9]: 0.041 µM |
| COc1cccc2c1C(=O)c1c(O)c3c(c(O)c1C2=O)C[C@@](O)(C(=O)CO)C[C@@H]3O[C@H]1C[C@H](N)[C@@H](O)[C@H](C)O1 [Epirubicin hydrochloride] |  | 1.07 µM | 93% | 28 % reduction |  |  |
| C[C@@H]1C[C@@H]([C@H](O)CC2CC(=O)NC(=O)C2)C(=O)[C@@H](C)C1 [Cycloheximide] |  |  |  |  | 27 % reduction | IC50 ([1]; Homo sapiens, Fibroblast, 48 h): > 25 µM; inhibition at 10 µM ([2]; Homo sapiens, Fibroblast, 48 h): 91%; IC50 ([2]; Homo sapiens, Fibroblast, 48 h): 0.109 µM |
| CC(C)C[C@H](NC(=O)[C@H](CCc1ccccc1)NC(=O)CN1CCOCC1)C(=O)N[C@@H](Cc1ccccc1)C(=O)N[C@@H](CC(C)C)C(=O)[C@@]1(C)CO1 [Carfilzomib (PR–171), Carfilzomib] |  | 0.004 µM | 100% | 52 % reduction |  |  |
| CC[C@@]1(O)C(=O)OCc2c1cc1n(c2=O)Cc2cc3c(CN(C)C)c(O)ccc3nc2-1 [Topotecan] | > 25 µM | 0.97 µM | 88% | 8 % reduction |  |  |
| C[C@]12CC[C@H](O)C[C@H]1CC[C@@H]1[C@@H]2CC[C@]2(C)[C@@H](C3=CC(=O)OC3)CC[C@]12O [Digitoxigenin] |  |  |  |  | 22 % reduction | IC50 ([1]; Homo sapiens, Fibroblast, 48 h): > 25 µM; inhibition at 10 µM ([2]; Homo sapiens, Fibroblast, 48 h): 93%; IC50 ([2]; Homo sapiens, Fibroblast, 48 h): 0.039 µM |
| [H]/N=C(\N/C(=N/[H])NCCCCCCNC(=N)NC(=N)Nc1ccc(Cl)cc1)Nc1ccc(Cl)cc1 [Chlorhexidine] |  | 5.8 µM | 80% | 24 % reduction |  |  |
| COc1ccc(CCN2CCC(Nc3nc4ccccc4n3Cc3ccc(F)cc3)CC2)cc1 [Astemizole] | 8.3 µM |  | 105% | 49 % reduction |  |  |
| COC(=O)Nc1nc2ccc(Sc3ccccc3)cc2[nH]1 [Fenbendazole] | 5.8 µM | 6.7 µM | 76% | 51 % reduction |  |  |
| CC[C@H]1CN2CCc3cc(OC)c(OC)cc3[C@@H]2C[C@@H]1C[C@H]1NCCc2cc(OC)c(OC)cc21 [Emetine] | > 25 µM | 0.071 µM | 100% |  | 25 % reduction |  |
| Nc1c2ccccc2nc2ccccc12 [Aminacrine] | 24 µM | 6 µM | 97% |  | 2 % reduction |  |
| CCSc1ccc2c(c1)N(CCCN1CCN(C)CC1)c1ccccc1S2.O=C(O)CC(O)C(=O)O.O=C(O)CC(O)C(=O)O [Thiethylperazine dimalate] |  |  |  |  |  | IC50 [1, 7]: 13 µM; Effect HCA at 10 µM [% inhibition] [2, 8]: 76 % inhibition; IC50 [2, 9]: 8.5 µM; Effect on viability at 10 µM [% reduction] (NHLF cells): 34 % reduction |
| CCOc1ccc2nc3cc(N)ccc3c(N)c2c1 [Ethacridine lactate monohydrate] | > 25 µM | 7.5 µM | 73% |  | –9 % reduction |  |
| C=C(NC(=O)C(=C)NC(=O)c1csc(C2=N[C@@H]3c4csc(n4)[C@H]4NC(=O)c5csc(n5)[C@H]([C@](C)(O)[C@@H](C)O)NC(=O)[C@H]5CSC(=N5)/C(=C/C)NC(=O)[C@H]([C@@H](C)O)NC(=O)c5csc(n5)[C@]3(CC2)NC(=O)[C@H](C)NC(=O)C(=C)NC(=O)[C@H](C)NC(=O)[C@H]([C@@H](C)CC)N[C@@H]2C=Cc3c([C@H](C)O)cc(nc3[C@H]2O)C(=O)O[C@@H]4C)n1)C(N)=O [Thiostrepton] |  |  |  |  | –11 % reduction | IC50 ([1]; Homo sapiens, Fibroblast, 48 h): 7.6 µM; inhibition at 10 µM ([2]; Homo sapiens, Fibroblast, 48 h): 85%; IC50 ([2]; Homo sapiens, Fibroblast, 48 h): 2.2 µM |
| CCCCC(=O)O[C@H]1CC[C@H]2[C@@H]3CCc4cc(O)ccc4[C@H]3CC[C@]12C [Estradiol Valerate] | 11 µM | 9.7 µM | 66% | 65 % reduction |  |  |
| C[C@@H](Oc1cc(-c2cnn(C3CCNCC3)c2)cnc1N)c1c(Cl)ccc(F)c1Cl [Crizotinib (PF–02341066), Crizotinib] | 16 µM | 1.5 µM | 63% |  | 66 % reduction |  |
| Cl.Cl.Fc1ccc(C(OCCN2CCN(CCCc3ccccc3)CC2)c2ccc(F)cc2)cc1 [GBR 12909 dihydrochloride] |  |  |  |  |  | Effect HCA at 10 µM [% inhibition] [2, 8]: 56 % inhibition; IC50 [2, 9]: 9.9 µM; Effect on viability at 10 µM [% reduction] (NHLF cells): 13 % reduction |
| Oc1c(Cl)cc(Cl)c(Cl)c1Cc1c(O)c(Cl)cc(Cl)c1Cl [Hexachlorophene] |  |  |  |  |  | IC50 ([1]; Homo sapiens, Fibroblast, 48 h): > 25 µM; inhibition at 10 µM ([2]; Homo sapiens, Fibroblast, 48 h): 93%; IC50 ([2]; Homo sapiens, Fibroblast, 48 h): 6.7 µM |
| O=C(CCCCCCC(=O)Nc1ccccc1)NO [Vorinostat] |  |  |  |  | 24 % reduction |  |
| O=C1c2c(O)ccc(O)c2C(=O)c2c(NCCNCCO)ccc(NCCNCCO)c21 [Mitoxantrone dihydrochloride] |  | 0.62 µM | 101% | 31 % reduction |  |  |
| CN[C@@H]1C[C@@H](c2ccc(Cl)c(Cl)c2)c2ccccc21 [Indatraline hydrochloride] |  |  | 67% |  | 20 % reduction | IC50 [2, 6]: 8.06 µM |
| C=CC(=O)N1CCC[C@@H](n2nc(-c3ccc(Oc4ccccc4)cc3)c3c(N)ncnc32)C1 [PCI–32765 (Ibrutinib), Ibrutinib] |  |  |  | 22 % reduction |  |  |
| Cc1c(-c2ccc(O)cc2)n(Cc2ccc(OCCN3CCCCCC3)cc2)c2ccc(O)cc12.Cl [Bazedoxifene HCl] |  |  |  |  |  | Effect on viability at 10 µM [% reduction] (NHLF cells): 55 % reduction |

From publication PMC6261607, “Novel high–throughput myofibroblast assays identify agonists with therapeutic potential in pulmonary fibrosis that act via EP2 and EP4 receptors” (PLoS ONE, 2018)
